According to patent US20140221324A1, “COMPOSITION FOR THE REDUCTION OF DRIP LOSSES IN PORK” (DSM IP ASSETS B.V., priority 2008, published 2014):

Key:
Assay type in all cases: in vivo, pig (Large-White x Landrace)
[1] = system: growing-fattening pig; test: Carcass cold yield after long-term dietary supplementation of growing-fattening pigs; conditions: for carcasses' cold yield, value in brackets relative to group A (100): index, group A (2000 IU/kg D3) = 100; for carcasses' cold yield: pigs fed supplemented diet (2000 IU/kg D3 or 50 μg/kg 25-OH D3), carcass weighed after 24 h at +4° C., mean ± SD of 20 determinations
Description: (§1) Fifty 28-d old Large-White x Landrace weaner piglets having an initial body weight of 7.9±0.74 kg were used. The animals were allocated into two equal groups (A and B) and housed in cages in sub-groups (two of 8 and one of 9 animals) in an environmentally controlled room. […] Room temperature was initially 27° C. and was lowered weekly by about 2° C. until 21-22° C. Environment humidity percentage throughout the experiment was 50%. The experiments were performed in the facilities of the Centre de Recherche en Nutrition Animate (CRNA), DSM Nutritional Products France, BP 170, 68305 Saint-Louis cedex, France. They have been performed according to the French legal regulations on experiments with live animals.
(§2) Each group of animals was fed either a basal diet with the addition of 2000 IU/kg of vitamin D3 (group A) or the basal diet, without vitamin D3, and supplemented with 50 μg/kg of 25-hydroxycholecalciferol (Rovimix® Hy•D® commercially available from DSM Nutritional Products) (group B).
(§3) At the end of the post-weaning phase the twenty heaviest animals of each group were used for the growing-fattening period. […] Room temperature was 21-22° C. and humidity percentage was 50%.
(§4) The pigs were fed for 87 days a diet supplemented either with 2000 IU/kg of vitamin D3 (group A, animals ingesting during the post-weaning phase 2000 U/kg) or with 50 μg/kg of 25-hydroxycholecalciferol (group B, animals ingesting during the post-weaning phase 50 μg/kg). The basal diet (Table 2) was formulated to meet the animals' requirements according to Henry et al. 1989 In: L'alimentation des animaux domestiques—pore, lapin, volailles INRA), 2ème édition, INRA, Paris, 49-76 and NRC, 1998. Nutrient requirements of swine, 10th revised edition, National Academic Press. Washington DC, U.S.A.
At the end of the experiment, all animals were randomly divided into four different lots and assigned to one slaughter campaign: days 84th, 85th, 86th and 87th. Animals of each lot were fasted for 12 hours and weighed just before they were slaughtered after tranquilization and stunning. The carcasses were sawed longitudinally following the spinal canal and weighed after 24 hours storage at +4° C. to estimate the carcasses' cold yield.
(§5) Statistical treatment of the results involved the calculation of the mean and the standard deviation of the mean as well as a two-factor hierarchical analysis of variance at 95% confidence level.

[2] = system: growing-fattening pig; test: Carcass lean/fat ratio after long-term dietary supplementation of growing-fattening pigs; conditions: for carcasses' lean/fat ratio, value in brackets relative to group A (100): index, group A (2000 IU/kg D3) = 100; for carcasses' lean/fat ratio: pigs fed supplemented diet (2000 IU/kg D3 or 50 μg/kg 25-OH D3), mean ± SD of 20 determinations
Description: as §1, §2, §3, §4
In the second mid-carcass lean and fat were measured at three different points with a caliper square tool. Muscular depth was measured after dissection of the ilio-spinalis muscle (longissimus dorsi) at the level of the 4th dorsal vertebrae. The sub-cutaneous back fat deposition was measured at the levels of the 4th dorsal and lumbar vertebras. These measures were used to estimate the carcasses' lcan/fat ratio.
as §5

[3] = system: ilio-spinalis (longissimus dorsi) muscle; test: pH of the ilio-spinalis (longissimus dorsi) muscle at slaughter and after 24 h storage; conditions: for pH after 24 h / pH at slaughter: ilio-spinalis muscle, mean ± SD of 20 determinations; for pH after 24 h: after 24 hours storage at +4° C.; for pH at slaughter: measured immediately; for pH after 24 h, value in brackets relative to group A (100) / pH at slaughter, value in brackets relative to group A (100): index
Description: as §1, §2, §3, §4
(§6) In one of the mid-carcass, the entire ilio-spinalis muscle (longissimus dorsi) was dissected. Each muscle was weighed and pH was measured immediately and after 24 hours storage at +4° C. The muscles were individually conditioned into inflated plastic bags for water recovery during storage. Percentage of drip loses from muscles was estimated by weight difference and water recovery.
as §5

[4] = system: ilio-spinalis (longissimus dorsi) muscle; test: Drip losses of the ilio-spinalis (longissimus dorsi) muscle; conditions: for Drip loss by water recovery / Drip loss by weight difference: ilio-spinalis muscle, mean ± SD of 20 determinations; for Drip loss by water recovery: 24 h storage at +4° C. in plastic bags; for Drip loss by weight difference: 24 h storage at +4° C.; for Drip loss by water recovery, value in brackets relative to group A (100) / Drip loss by weight difference, value in brackets relative to group A (100): index
Description: as §1, §2, §3, §4, §6, §5

[5] = dietary supplementation vs. vitamin D3 control group

SMILES	carcasses' cold yield, value in brackets relative to group A (100) [1]	carcasses' cold yield [1]	carcasses' lean/fat ratio, value in brackets relative to group A (100) [2]	carcasses' lean/fat ratio [2]	pH after 24 h [3]	pH at slaughter [3]	pH after 24 h, value in brackets relative to group A (100) [3]	pH at slaughter, value in brackets relative to group A (100) [3]	Drip loss by water recovery [4]	Drip loss by weight difference [4]	Drip loss by water recovery, value in brackets relative to group A (100) [4]	Drip loss by weight difference, value in brackets relative to group A (100) [4]	effect on the cold yield of the carcasses (in words) [1, 5]	effect on the lean/fat ratio of the carcasses (in words) [2, 5]	pH values immediately after slaughter and after 24 hours storage compared to control group (in words) ([3]; ilio-spinalis muscle segments)	mass lost from muscular segments (in words) ([4]; vs. control group)	water volumes recovered from muscular segments (in words) ([4]; vs. control group)
C=C1CC[C@H](O)C/C1=C/C=C1\CCC[C@]2(C)[C@@H]([C@H](C)CCCC(C)C)CC[C@@H]12 [D3, vitamin D3]	(100)	81.85 ± 0.76^(1) % of live weight	(100)	68.42 ± 2.26^(1) %	5.49 ± 0.05^(1)	5.85 ± 0.21^(1)	(100)	(100)	0.78 ± 0.74^(1) %	1.94 ± 0.85^(1) %	(100)	(100)					
C=C1CC[C@H](O)C/C1=C/C=C1\CCC[C@]2(C)[C@@H]([C@H](C)CCCC(C)(C)O)CC[C@@H]12 [25-OH D3, 25-hydroxycholecalciferol]	(99)	81.11 ± 1.71 % of live weight	(99)	67.70 ± 2.99%	5.51 ± 0.04	5.89 ± 0.16	(100)	(101)	0.45 ± 0.23%	1.51 ± 0.28%	(58)	(78)	no positive effects	no positive effects	similar	less mass was lost	clearly smaller water volumes were recovered
